Assay results reported in patent publication US20140288077A1, “SUBSTITUTED 4-PHENOXYPHENOL ANALOGS AS MODULATORS OF PROLIFERATING CELL NUCLEAR ANTIGEN ACTIVITY” (ST. JUDE CHILDREN'S RESEARCH HOSPITAL, priority 2011, published 2014).
Read-outs that look alike come from different tables or passages of the source. No end group written: not given here.

Target: T1, human PCNA recombinant protein (Homo sapiens, UniProt P12004)
T1 construct: The full length human PCNA; made in house; host or cells: Escherichia coli BL21(DE3)
T1 sequence (P12004 whole entry): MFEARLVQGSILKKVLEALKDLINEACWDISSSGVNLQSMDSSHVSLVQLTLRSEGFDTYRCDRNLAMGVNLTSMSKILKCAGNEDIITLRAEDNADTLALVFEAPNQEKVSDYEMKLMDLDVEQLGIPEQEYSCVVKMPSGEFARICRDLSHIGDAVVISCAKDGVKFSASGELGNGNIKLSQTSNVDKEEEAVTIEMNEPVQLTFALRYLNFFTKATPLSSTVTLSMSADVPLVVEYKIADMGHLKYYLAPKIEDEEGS
Assay: Fluorescent polarization assay: competition with 5-FAM-labeled PL peptide for PCNA
Type: binding
Source text: To determine the binding of the disclosed compounds to the human PCNA recombinant protein, a fluorescence polarization assay was employed. The assay is based on competition between a fluorescent tracer and increasing amounts of competing compound, i.e. a disclosed compound, determined as fluorescence polarization intensity (mP). The fluorescent tracer was 5-carboxyfluorescein (5-FAM) labeled PL peptide (“FAM-PL”). […] PCNA was a recombinant protein purified using standard methods known to one skilled in the art using an expression construct obtained from Dr. Toshiki Tsurimoto, Kyusyu University, Japan.
The volumes of PCNA and FAM-PL were adjusted to ensure that the final concentration of PCNA was 200 nM and FAM-PL was 10 nM. Assays were carried out in 384 well plates in a total volume of about 20-30 μL. […] Fluorescence measurements were made immediately after dilution in the assay plate. […] FP values (P) were calculated in millipolarization units (mP),
where I∥ and I⊥ are the emission intensities recorded, respectively, in the parallel and perpendicular directions relative to the plane of excitation polarization, after background intensity correction. G-factor values (G) for the fluorescein spectral window were measured using 1 nM fluorescein.
Alternatively, the fluorescent polarization assay can be carried out as described in the following. […] Briefly, 20 μl of the assay solution was transferred into each well of a black 384-well plate using Wellmate (Matrix). […] The negative control in each plate was DMSO, whereas the positive control was unlabeled PL-peptide as a self-competitor. […] FP values were calculated in millipolarization units. All data processing was performed using in-house programs in the Pipeline Pilot (Accelrys, version 7.0.1). The quality of the primary screen was assessed by Z-prime and other screening quality metrics.

[1] = Table 2, inhibition of FAM-PL peptide binding to PCNA, read-out: IC50

## O=S(=O)(N[C@H](CO)Cc1cc(I)c(Oc2ccc(O)cc2)c(I)c1)c1ccccc1 [MLAE-058-2, (S)—N-(1-Hydroxy-3-(4-(4-hydroxyphenoxy)-3,5-diiodophenyl)propan-2-yl)benzenesulfonamide]
[1]
  IC50: 6 µM

## COc1ccc(Oc2c(I)cc(CC(=O)NS(C)(=O)=O)cc2I)cc1 [MLAE-046, 2-(3,5-Diiodo-4-(4-methoxyphenoxy)phenyl)-N-(methylsulfonyl)acetamide]
[1]
  IC50: > 50 µM

## COCCNC(=O)CCc1cc(I)c(Oc2ccc(O)cc2)c(I)c1 [MLAE-051-1, 3-(4-(4-Hydroxyphenoxy)-3,5-diiodophenyl)-N-(2-methoxyethyl)propanamide]
[1]
  IC50: 4.9 µM

## O=C1CN(C(=O)CCc2cc(I)c(Oc3ccc(O)cc3)c(I)c2)CCN1 [MLAE-034, 4-(3-(4-(4-hydroxyphenoxy)-3,5-diiodophenyl)propanoyl)piperazin-2-one]
[1]
  IC50: > 50 µM

## NC(=O)Cc1cc(I)c(Oc2ccc(O)c(I)c2)c(I)c1 [MLAG-088, 2-(4-(4-Hydroxy-3-Iodophenoxy)-3,5-diiodophenyl)acetamide]
[1]
  IC50: 6.6 µM

## COc1ccc(S(=O)(=O)N[C@H](CO)Cc2cc(I)c(Oc3ccc(O)cc3)c(I)c2)cc1 [MLAE-058-3, (S)—N-(1-Hydroxy-3-(4-(4-hydroxyphenoxy)-3,5-diiodophenyl)propan-2-yl)-4-methoxybenzenesulfonamide]
[1]
  IC50: 9.7 µM

## CCCCCNC(=O)Cc1cc(I)c(Oc2ccc(O)c(I)c2)c(I)c1 [MLAE-029-9, 2-(4-(4-Hydroxy-3-iodophenoxy)-3,5-diiodophenyl)-N-pentylacetamide]
[1]
  IC50: > 50 µM

## COc1ccc(Oc2c(I)cc(CCC(=O)NS(C)(=O)=O)cc2I)cc1 [MLAE-036, 3-(3,5-diiodo-4-(4-methoxyphenoxy)phenyl)-N-(methylsulfonyl)propanamide]
[1]
  IC50: > 50 µM

## CCS(=O)(=O)N1CCN(C(=O)CCc2cc(I)c(Oc3ccc(O)cc3)c(I)c2)CC1 [MLAE-051-3, 1-(4-(Ethylsulfonyl)piperazin-1-Yl)-3-(4-(4-hydroxyphenoxy)-3,5-diiodophenyl)propan-1-one]
[1]
  IC50: 2.7 µM

## CS(=O)(=O)NC(=O)CCc1cc(I)c(Oc2ccc(O)c(C(=O)Nc3ccccc3)c2)c(I)c1 [MLAF-012, 5-(2,6-diiodo-4-(3-(methylsulfonamido)-3-oxopropyl)phenoxy)-2-hydroxy-N-phenylbenzamide]
[1]
  IC50: > 50 µM

## NCc1cc(I)c(Oc2ccc(O)cc2)c(I)c1 [MLAG-082, 4-(4-(aminomethyl)-2,6-diiodophenoxy)phenol]
[1]
  IC50: 1.6 µM

## NCCc1cc(I)c(Oc2ccc(O)cc2)c(I)c1 [MLAG-087, 4-(4-(2-aminoethyl)-2,6-diiodophenoxy)phenol]
  IC50: 0.9 µM

## CS(=O)(=O)NC(=O)CCc1cc(I)c(Oc2ccc(O)c(C(=O)NCc3ccccc3)c2)c(I)c1 [MLAF-013, N-Benzyl-5-(2,6-diiodo-4-(3-(methylsulfonamido)-3-oxopropyl)phenoxy)-2-hydroxybenzamide]
[1]
  IC50: 1.4 µM

## CS(=O)(=O)NC(=O)Cc1cc(I)c(Oc2ccc(O)cc2)c(I)c1 [MLAE-049, 2-(4-(4-Hydroxyphenoxy)-3,5-diiodophenyl)-N-(methylsulfonyl)acetamide]
[1]
  IC50: 9.1 µM

## NC[C@@H](N)Cc1cc(I)c(Oc2ccc(O)cc2)c(I)c1 [SWUA_017, (S)-4-(4-(2,3-diaminopropyl)-2,6-diiodophenoxy)phenol]
[1]
  IC50: 2.5 µM

## COCCCNC(=O)CCc1cc(I)c(Oc2ccc(O)cc2)c(I)c1 [MLAE-054-4, 3-(4-(4-Hydroxyphenoxy)-3,5-diiodophenyl)-N-(3-methoxypropyl)propanamide]
[1]
  IC50: 5.2 µM

## SAVLQKKITDYFHPKK [PL peptide, reference compound]
Unlabeled PL-peptide against tagged PL-peptide, data not shown, read-out: IC50 in self-competition
  IC50: ~0.1 µM

## COc1ccc(Oc2c(I)cc(CC(=O)N3CCNC(=O)C3)cc2I)cc1 [MLAE-045, 4-(2-(3,5-Diiodo-4-(4-methoxyphenoxy)phenyl)acetyl)piperazin-2-one]
[1]
  IC50: 2.1 µM

## COc1ccc(NC(=O)Cc2cc(I)c(Oc3ccc(O)c(I)c3)c(I)c2)cc1 [MLAE-029-7, 2-(4-(4-Hydroxy-3-iodophenoxy)-3,5-diiodophenyl)-N-(4-methoxyphenyl)acetamide]
[1]
  IC50: > 50 µM

## O=C(CCc1cc(I)c(Oc2ccc(O)c(C(=O)NCc3ccccc3)c2)c(I)c1)NCCO [MLAF-008, N-Benzyl-2-hydroxy-5-(4-(3-((2-hydroxyethyl)amino)-3-oxopropyl)-2,6-diiodophenoxy)benzamide]
[1]
  IC50: 0.4 µM

## O=C(CCc1ccc(I)c(Oc2ccc(O)cc2)c1I)NCCO [MLAF-051]
[1]
  IC50: 9.5 µM

## N[C@H](CO)Cc1cc(I)c(Oc2ccc(O)c(I)c2)c(I)c1 [MLAG-083, (S)-4-(4-(2-amino-3-hydroxypropyl)-2,6-diiodophenoxy)-2-iodophenol]
[1]
  IC50: 0.6 µM

## O=C(CCc1cc(I)c(Oc2ccc(O)cc2)c(I)c1)N1CCCCC1 [MLAE-041, 3-(4-(4-hydroxyphenoxy)-3,5-diiodophenyl)-1-(piperidin-1-yl)propan-1-one]
[1]
  IC50: 2.4 µM

## O=C(Cc1cc(I)c(Oc2ccc(O)c(I)c2)c(I)c1)NCCc1ccccc1 [MLAE-029-3, 2-(4-(4-hydroxy-3-iodophenoxy)-3,5-diiodophenyl)-N-phenethylacetamide]
[1]
  IC50: > 50 µM

## Cc1cc(Oc2c(I)cc(C[C@H](N)CO)cc2I)ccc1O [MLAG-093, (S)-4-(4-(2-amino-3-hydroxypropyl)-2,6-diiodophenoxy)-2-methylphenol]
[1]
  IC50: 1.8 µM

## CNC(=O)CCc1cc(I)c(Oc2ccc(OC)cc2)c(I)c1 [MLAE-040, 3-(3,5-Diiodo-4-(4-methoxyphenoxy)phenyl)-N-methylpropanamide]
[1]
  IC50: 17 µM

## O=C(O)CCc1ccc(I)c(Oc2ccc(O)cc2)c1I [MLAF-050, 3-(3-(4-Hydroxyphenoxy)-2,4-diiodophenyl)propanoic acid]
[1]
  IC50: 19 µM

## Oc1ccc(Oc2c(I)cc(C[C@H]3C[NH2+][Pt-2]([Cl])([Cl])[NH2+]3)cc2I)cc1 [dichloro((S)-4-(4-(2,3-diaminopropyl)-2,6-diiodophenoxy)phenol)platinum(II)]
Incubation time 5 min (FIGS. 15-18), read-out: IC50 in fluorescent polarization assay
  IC50: ~0.27 µM

## CCNC(=O)Cc1cc(I)c(Oc2ccc(O)cc2)c(I)c1 [MLAG-066-3, N-ethyl-2-(4-(4-hydroxyphenoxy)-3,5-diiodophenyl)acetamide]
[1]
  IC50: 6.6 µM

## Cc1noc(C)c1S(=O)(=O)N[C@H](CO)Cc1cc(I)c(Oc2ccc(O)cc2)c(I)c1 [MLAE-061, (S)—N-(1-Hydroxy-3-(4-(4-hydroxyphenoxy)-3,5-diiodophenyl)propan-2-yl)-3,5-dimethylisoxazole-4-sulfonamide]
[1]
  IC50: 16 µM

## O=S(=O)(N[C@H](CO)Cc1cc(I)c(Oc2ccc(O)cc2)c(I)c1)c1ccc(O)cc1 [MLAE-060, (S)-4-Hydroxy-N-(1-hydroxy-3-(4-(4-hydroxyphenoxy)-3,5-diiodophenyl)propan-2-yl)benzenesulfonamide]
[1]
  IC50: 32 µM

## O=C(CCc1cc(I)c(Oc2ccc(O)c(C(=O)Nc3ccccc3)c2)c(I)c1)NCCO [MLAF-007, 2-Hydroxy-5-(4-(3-((2-hydroxyethyl)amino)-3-oxopropyl)-2,6-diiodophenoxy)-N-phenylbenzamide]
[1]
  IC50: 0.4 µM

## CNC(=O)Cc1cc(I)c(Oc2ccc(O)cc2)c(I)c1 [MLAG-066-1, 2-(4-(4-hydroxyphenoxy)-3,5-diiodophenyl)-N-Methylacetamide]
[1]
  IC50: 8.3 µM

## O=C(Cc1cc(I)c(Oc2ccc(O)c(I)c2)c(I)c1)NC1CCCCC1 [MLAE-029-2, N-Cyclohexyl-2-(4-(4-hydroxy-3-iodophenoxy)-3,5-diiodophenyl)acetamide]
[1]
  IC50: > 50 µM
